The test system of assay [1] is TF-induced platelet aggregation in human platelet-rich plasma. The experiment in a line: TF-induced platelet aggregation assay (time delay / lag time) in human platelet-rich plasma. It counts as cell-based. The conditions noted are these: human PRP; for time delay of platelet aggregation: 0 μM = 75 seconds; for 2×Base value (concentration required to double the time for TF-induced platelet aggregation): time delay of TF-induced platelet aggregation. As to the method:
The remaining samples were then centrifuged at […] for 10 min to obtain platelet-poor plasma (PPP). Platelet count was adjusted to 2-2.5×10^8 cells/ml with platelet-poor plasma.
PRP (275 μl) sample was briefly mixed with 25 μl of 36 mg/ml pefabloc. Various compounds (in a volume of 1.2 μl) were added and incubated at 37° C. for 3 min in a cylindrical glass cuvette. Platelet aggregation was induced by 4 μl of Innovin®-CaCl2 mixture and measured under continuous stirring at 1000 rpm in a PA-200 platelet aggregation analyzer (Kowa, Tokyo, Japan). Platelet-poor plasma was used as a reference. Platelet aggregation curves defined by changes in light transmission over time were recorded for 15 min. The lag time was defined as the time from CaCl2 addition until the light transmittance reached 1%. The concentration of Innovin® and CaCl2 was adjusted for each sample so that the average control lag time was from 50 to 70 seconds.

In assay [2] the test system is thrombus formation in carotid artery. The experiment in a line: Rabbit ECAT model. It counts as in vivo. The settings on record: i.v. infusion, drug concentration maintaining total blood flow at 80% of baseline. On the procedure: Briefly, male, New Zealand, white rabbits were anesthetized with ketamine (50 mg/kg+50 mg/kg/h i.m.) and xylazine (10 mg/kg+10 mg/kg/h i.m.). These anesthetics were supplemented as needed. An electromagnetic flow probe was placed on a segment of an isolated carotid artery to monitor blood flow. Thrombus formation was induced by electrical stimulation of the carotid artery for 3 min at 4 mA using an external stainless steel bipolar electrode. […] Plasma concentrations were determined in blood samples taken at the end of the experiment by liquid chromatography-tandem mass spectrometry.
Carotid blood flow was measured continuously over the 90-min period of thrombus formation and total carotid blood flow was calculated as an area under the carotid blood flow-time curve. Preservation of total CBF relative to sustained baseline flow was used to assess antithrombotic activity. The drug concentrations which maintained total blood flow at 80% of baseline (ED80) was the common comparator among antithrombotic agents.

Entries after “also recorded” stand apart in the source; their conditions may differ.

With `NCc1ccccc1-n1nc(C(F)(F)F)cc1C(=O)Nc1ccc(-c2ccccc2S(N)(=O)=O)cc1F` [1-(2-aminomethylphenyl)-3-trifluoromethyl-N-[3-fluoro-2′-(aminosulfonyl)[1,1′-biphenyl)]-4-yl]-1H-pyrazole-5-carboxyamide], in assay [1], the “effect on the time delay of TF-induced platelet aggregation (in words)” value (“effect on the time delay” below) is “dose-dependent effects”.

For the molecule `COc1cc([C@@H]2Nc3ccc(C(=N)N)cc3[C@H]3c4ccccc4C[C@H]32)c(-c2ccc(C(=O)O)cc2)cc1O` [Compound A, 2′-((6R,6aR,11bR)-2-Carbamimidoyl-5,6a,7,11b-tetrahydro-6H-indeno[2,1-c]quinolin-6-yl)-5′-hydroxy-4′-methoxy-biphenyl-4-carboxylic acid], the “time delay of platelet aggregation” value in assay [1] (1.26 μM) amounted to 175 s; in assay [1] (4.0 μM) it was 286 s; in assay [1] (12.6 μM) it was 671 s; in assay [1] (25.2 μM) it was 865 s. Moreover, in assay [1], the “effect on the time delay” value is on record as “concentration-dependent effect; also recorded: Dose-dependent effect”. The “2×Base value (concentration required to double the time for TF-induced platelet aggregation)” value (shortened to “2×Base value”) in assay [1] amounted to 1.25 µM. The ED80 in assay [2] amounted to 1100 nM.

On to `CS(=O)(=O)c1ccccc1-c1ccc(NC(=O)c2cc(C(F)(F)F)nn2-c2cccc(CN)c2)c(F)c1` [Compound B, 1-[3-(aminomethyl)phenyl]-N-[3-fluoro-2′-(methylsulfonyl)[1,1′-biphenyl]-4-yl]-3-(trifluoromethyl)-1H-pyrazole-5-carboxamide], for which the ED80 in assay [2] came out at 400 nM.

Regarding `CC(C)CC(=O)Nc1cc(-c2ccc(C(N)=O)cc2C(=O)O)cc([C@@H]2C[C@](C)(c3ccccc3)c3cc(C(=N)N)ccc3N2)c1` [Compound C, 3′-((2S,4R)-6-Carbamimidoyl-4-methyl-4-phenyl-1,2,3,4-tetrahydro-quinolin-2-yl)-4-carbamoyl-5′-(3-methyl-butyrylamino)-biphenyl-2-carboxylic acid], in assay [1] (40 μM), the “effect on TF-induced platelet aggregation at high dose (in words)” value is “weak efficacy”. Moreover, in assay [1], the “effect on the time delay” value was “barely showed any effect; also recorded: No effect” and the “2×Base value” value came to 26 µM. In assay [2], the ED80 was 800 nM.

As for `CC(C)(C)c1ccccc1Oc1ncccc1NC(=O)Nc1ccc(OC(F)(F)F)cc1` [Compound F, 1-[2-(2-tert-Butyl-phenoxy)-pyridin-3-yl]-3-(4-trifluoromethoxy-phenyl)-urea], in assay [1], the “effect on the time delay” value is listed as “no effect” and the “2×Base value” value is ~0 µM.

As to `CNc1ncnc2c1ncn2[C@H]1C[C@H](OP(=O)(O)O)[C@@H](COP(=O)(O)O)O1` [N6-methyl-2′-deoxyadenosine-3′,5′-bisphosphate, reference compound], the “effect on the time delay” value in assay [1] is “no effect”.

For `CSCCNc1nc(SCCC(F)(F)F)nc2c1ncn2[C@@H]1O[C@H](COP(=O)(O)OP(=O)(O)C(Cl)(Cl)P(=O)(O)O)[C@@H](O)[C@H]1O` [cangrelor, reference compound], the “effect on the time delay” value in assay [1] is “no effect”.

Values taken from patent publication US20080026474A1, “ASSAY FOR DIFFERENTIATING COMPOUNDS THAT MODULATE THE EXTRINSIC AND/OR INTRINSIC COAGULATION PATHWAYS” (Bristol-Myers Squibb Company, priority 2006, published 2008).
